Patent US7709458B2, “Method for inhibiting cancer cell proliferation or increasing cancer cell apoptosis” (priority 2004, dated 2010)

Assays:
[1] = test system: SH-SY5Y human neuroblastoma cells; assay: cells; assay type: cell-based
Method: Toxicity assays in human neuroblastoma cells. SH-SY5Y human neuroblastoma cells were cultured in DMEM/Ham's F-12 (1:1) media, supplemented with 10% FBS, penicillin (100 IU/ml), streptomycin (100 μg/ml), and L-glutamine (2 mM); the cell culture medium was replaced every two days. Cultures were maintained at 37° C. in 95% air-5% CO2 in a humidified incubator. A standard curve established the linear range for the assay of approximately 1000-7000 cells/well for a 96 well plate. All data reported were within this range. MTS assay concentration-response curves were performed as follows: 1800 cells/well were plated in 96 well plates. After 30 h, media was changed to include no toxicant (control) or toxicant at varying concentrations. The cells were then exposed for 48 h, the media was removed, and 100 μl minimum essential medium without phenol red and 20 μl MTS reagent were added. Cells were incubated, and 2 h later, plates were measured at 490 nm on an ELx 808 microplate reader (Bio-Tek Instruments, Winooski, Vt.). EC50 values were determined via nonlinear regression using Prism software (GraphPad, San Diego, Calif.).
Cytotoxicity tests in human neuroblastoma cells. The 3-(4,5-dimethylthiazol-2-yl)-5-(3-carboxymethoxyphenyl)-2-(4-sulfophenyl)-2H-tetrazolium (MTS) assay is a quantitative colorimetric assay for measurement of cellular proliferation, cytotoxicity and viability. MTS is converted to a formazan product only in living cells. MTS is similar to 3-(4,5-dimethylthiazol-2-yl)-2,5-diphenyltetrazolium bromide (MTT), which is widely used in cytotoxicity assays. The difference is that the formazan product for the MTS reagent is soluble in media while the MTT reagent is not.
To study the cytotoxicity of c-di-GMP in SH-SY5Y human neuroblastoma cells, increasing concentrations (0.0001-1000 μM) were added to the culture medium and cell viability was assessed by the MTS assay. […] Up to 100 μM, there was no effect on cell viability; at greater concentrations, a sharp decline in cell viability was observed.

[2] = test system: H508 human colon cancer cells; assay: H508 colon cancer cell proliferation assay (sulforhodamine B colorimetric assay); assay type: cell-based; details: 50 μM

For `Nc1nc(=O)c2ncn([C@@H]3OC4COP(=O)(O)O[C@H]5[C@@H](O)[C@H](n6cnc7c(=O)nc(N)[nH]c76)O[C@@H]5COP(=O)(O)OC4C3O)c2[nH]1` (stereo partly shown) [c-di-GMP, Bis(3′-->5′)-cyclic diguanylic acid], the “cytotoxicity on human neuroblastoma cells” value [1] was “no cytotoxicity”, the EC50 ([1]; Homo sapiens, SH-SY5Y cells, 48 hr exposure, MTS assay, read-out: EC50 for decrease of cell viability) was 350 µM and the “concentration with no effect on cell viability” value ([1]; human, 48 h) was “Up to 100 μM”. The “apoptosis of H508 cells by microscopic examination” value [2] was “not observed by microscopic examination”.
